Earlier results on two compounds are cited in PMC4382562 (Current Chemical Genomics and Translational Medicine, 2015).

One may read the IC50 as the concentration at which inhibition is half-maximal.

Each structure is given as a SMILES string.

The test system of the data set is iCell Neurons. The conditions noted are these: read-out: Neurite outgrowth IC50 (high content image-based analysis), previously reported.

As to `CCCCCC[C@H]1C(=O)O[C@H](C)[C@H](NC(=O)c2cccc(NC=O)c2O)C(=O)O[C@@H](C)[C@@H]1OC(=O)CC(C)C` [Antimycin A], the half-maximal inhibitory concentration (IC50) is around 13 µM.
As for `CN[C@@H]1C[C@H]2O[C@@](C)([C@@H]1OC)n1c3ccccc3c3c4c(c5c6ccccc6n2c5c31)C(=O)NC4` [Staurosporine], the IC50 was around 0.9 µM.
